Tests used:
[1] = system: Caco-2 cells; test: MTT cell viability assay, IC50 in Caco-2 cells; assay type: cell-based; details: Homo sapiens, 24 h, SE less than 10% of value
Method: (§1) The human liver hepatocellular carcinoma cell line, HepG2, and the human adenocarcinoma of colon cell line, Caco-2, were cultured in Eagle’s Minimum Essential medium supplemented with 1% (v/v) non-essential amino acids, 0.2 mM L-glutamine, 50 units/mL penicillin, 50 μg/mL streptomycin and 10% (v/v) or 20% (v/v) fetal bovine serum (Sigma Aldrich, Milan, Italy) for HepG2 or Caco-2, respectively. The human embryonal lung fibroblast cell line, MRC5, was cultured in Dulbecco’s Modified Eagle medium (Sigma Aldrich, Milan, Italy) supplemented with 10% (v/v) fetal bovine serum, 0.2 mM L-glutamine, 50 units/mL penicillin and 50 μg/mL streptomycin. HUVEC cells were cultured in endothelial growth medium-2, supplemented with fetal bovine serum (2%), VEGF (0.1%), rH FGF-B (0.4%), rH EGF (0.1%), GA-1000 (0.1%), hydrocortisone (0.04%), R3-IGF-1 (0.1%), heparin (0.1%) and ascorbic acid (0.1%). Cells were maintained at 37 °C in a 5% CO2, 95% air-humidified atmosphere and passaged twice a week. Cell lines were obtained from Interlab Cell Line Collection, Istituto Nazionale per la Ricerca sul Cancro, Genoa, Italy. HUVEC were obtained from Lonza (Milan, Italy).
(§2) An MTT assay was used to analyse cell viability. Cells were seeded in 96 wells at the density of 2 × 10^4/cm^2 and, after 24 h, they were treated with P. tomentosa compounds or with the vehicle (DMSO). After a further 24 h of treatment, 0.5 mg/mL of MTT was added to the cell medium and incubated for 1.5 h at 37 °C. The resulting formazan crystals were dissolved in 100 μL of DMSO and absorbances were measured at 595 nm and 655 nm. The background signals at 655 nm were subtracted from 595 nm signals, and data were expressed as a percent of cell viability. The concentration of each compound that is required for 50% inhibition in vitro (IC50) was calculated as described in Husseini et al.. IC50 values were obtained for Caco-2, HepG2 and MRC5 cells by performing MTT assays with concentrations ranging from 0.01 μg/mL to 5 μg/mL.

[2] = system: HepG2, Caco-2, MRC5 and HUVEC cells; test: MTT assay, comparison of cytotoxic effects at 1 μM on four cell types; assay type: cell-based, human; details: 24 h, Caco-2, HepG2, MRC5, HUVEC
Source text: We focused attention on 12β,6′-dihydroxycalotropin (1), 16α-hydroxycalotropin (2), 12β-hydroxycalactin (3), calotropin (4), and calactin (5), among those described by Hosseini et al., and tested their cytotoxic activity by a 3-(4,5-dime-thylthiazol-2-yl)-2,5-diphenylte-tetrazolium bromide (MTT) assay on two cancer cell lines (HepG2 and Caco-2), not previously employed, on an immortalised nontumoral cell line (MRC5) and normal primary cells (HUVEC).
Figure 2 Comparison of cytotoxic effects of P. tomentosa compounds on cancer cell lines (Caco-2 and HepG2), on an immortalised cell line (MRC5) and normal cells (HUVEC). Cells were treated for 24 h with 1 μM of each compound. Residual viability was measured by the MTT assay. Values are the means ± standard error (SE) of three independent experiments performed in triplicate. Statistical analysis was performed using the Student’s t-test. * p < 0.05 and ** p < 0.01 vs. cells treated with the vehicle (DMSO).
as §1, §2

[3] = system: HepG2 cells; test: BrdU incorporation (proliferation) assay; assay type: cell-based, human; details: HepG2, 1 μM, 24 h
Method: Cell proliferation was analysed by a BrdU (Roche Diagnostics SpA, Monza, Italy) incorporation assay, as previously described. Briefly, HepG2 cells, seeded at adensity of 3 × 10^3/cm^2 on round glass cover slips, were treated for 24 h with P. tomentosa compounds at 1 μM. Then, BrdU was added to cell medium (final concentration, 100 μM) for 1 h. Cells were fixed (in 3% paraformaldehyde, 10 min), permeabilised (in 0.2% Triton X-100, 5 min) and treated with HCl 1.5 N (5 min). Finally, cover slips were incubated with a monoclonal antibody against BrdU (Sigma-Aldrich, Milan, Italy), 1:100, and with a TRITC-conjugated secondary antibody, 1:100. After staining with Hoechst, cover slips were mounted with Mowiol (Sigma, Milan, Italy). […] Images were acquired with Axiocam MRc5 and processed with ImageJ Launcher. The number of cells into S-phase was expressed as the ratio between the number of cells incorporating BrdU and the total number of cells.

[4] = system: HepG2 cells; test: MTT cell viability assay, IC50 in HepG2 cells; assay type: cell-based; details: Homo sapiens, 24 h, SE less than 10% of value
Method: as §1, §2

[5] = system: HepG2 cells; test: Transwell migration assay; assay type: cell-based, human; details: HepG2, 1 μM, 18 h
Method: Transwell filters (coated with collagen) in serum-free media containing 0.1% of BSA, with a PET membrane with 8 μm pores (BD Biosciences, Milan, Italy), were rehydrated for 2 h at 37 °C. HepG2 were seeded in the upper chambers at a density of 75 × 10^3 cells in MEM with 0.1% BSA and treated with or without 1 µM of Pergularia compounds. MEM−0.1%BSA, supplemented with 10% FBS, was added to the lower chamber as chemoattractant. Control wells without 10% FBS were included to assess random migration. After incubation at 37 °C in 5% CO2 for 18 h, the migrated cells were fixed with 4% paraformaldehyde for 5 min, permeabilised with methanol for 20 min and stained with crystal violet 0.5% for 15 min at room temperature. The cells on the lower side of the filter were allowed to dry before counting. Eight separate bright-field images were randomly acquired of each filter using an Olympus CKX41 Image Analyzer. The cells in each image were counted and analysed compared to control-transfected cells.

[6] = system: MRC5 cells; test: MTT cell viability assay, IC50 in MRC5 cells; assay type: cell-based; details: Homo sapiens, 24 h, SE less than 10% of value
Method: as §1, §2

[7] = system: HepG2 cells; test: TUNEL assay; assay type: cell-based, human; details: HepG2, 1 μM, 24 h
Method: Microscopic evaluation of apoptosis was performed by a TUNEL assay, using a commercial kit (Fragment End Labelling (FragEL™), […]) DNA Fragmentation Detection Kit, Sigma-Aldrich, Milan, Italy) according to the manufacturer-provided protocol, with some modifications. Briefly, cells were seeded on glass cover slips placed in 24-well plates at a density of 3.5 × 10^3/cm^2 and, after 48 h, they were treated with 1 μΜ of each compound for a further 24 h. Cells were fixed in 3% paraformaldehyde for 10 min, permeabilised in 0.2% Triton X-100 for 5 min and treated with HCl 1.5 N for 8 min. Finally, cover slips were equilibrated in equilibration buffer (10 min) and incubated with label mix containing the TdT enzyme for 1 h at 37 °C, then mounted with mounting media. Microscope observations were performed by the AxioSkop 40 fluorescent microscope. Images were acquired with Axiocam MRc5 (Carl Zeiss MicroImaging, Inc., Jena, Germany).

[8] = system: HepG2 cells; test: Scratch-wound-healing assay; assay type: cell-based, human; details: HepG2, 1 μM, 24, 48 and 72 h
Method: Cells were seeded at a density of 5 × 10^4 cells/well in 24-well plates and allowed to grow for 72 h, reaching confluence. Mitomycin C (10 μg/mL) was added to inhibit proliferation, and then a sterile 2–10 μL pipette tip was used to perform a vertical scratch in the monolayer of each well. Detached cells were removed by washing with phosphate-buffered saline. Then, 300 μL of fresh medium containing P. tomentosa compounds (1 μM) or vehicle was added to each well and incubated for 72 h. Images of migrating cells were taken at 0, 24, 48 and 72 h, by using an Olympus CKX41 fluorescent microscope (Olympus Italia srl, Segrate, Italy) and elaborated by the ImageJ software. For each scratch, wound width was calculated as the average distance between the edges in four different sites. Then, reductions in wound wights at 24, 48 and 72 h were expressed as % of the width at time zero.

[9] = system: caspase-3 in HepG2 cells; test: Western blot of cleaved caspase-3; assay type: cell-based, human; details: HepG2, 2 μM, 7 h, Western blot densitometry
Method: To analyse the protein levels of p53, caspase-3, GRP78, LC3 and p62, HepG2 cells were treated with P. tomentosa compounds (1 or 2 μM) or with DMSO for the indicated times; then, Western blot analyses were performed. Briefly, cells were lysed in RIPA buffer (20 mM Tris-HCl, pH 7.5, 150 mM NaCl, 1 mM EDTA, 1 mM dithiothreitol, 0.1% sodium dodecyl sulphate, 1% triton X-100, 1 mM orthovanadate, and a cocktail of inhibitors (Sigma-Aldrich, Milan, Italy)). After separation on a sodium dodecyl sulphate-polyacrylamide gel electrophoresis and transfer to a poly-vinylidene fluoride membrane (Euroclone, Milan, Italy), the following primary antibodies were used, at a dilution of 1:1000 in tris-buffered saline containing 1% non-fat dry milk, overnight at 4 °C: mouse anti-p53 antibody, mouse anti-MAP LC3 β antibody, mouse anti-p62 antibody (DBA, Milan, Italy), mouse anti-GRP78 antibody, and mouse anti-caspase 3 antibody (Thermo Fisher Scientific, Milan, Italy). For normalisation, a mouse anti-GAPDH antibody (Microtech, Naples, Italy) was used.

[10] = system: XBP1 in HepG2 cells; test: XBP1 splicing detection; assay type: cell-based, human; details: HepG2, 1 μM, 4 h
Method: To detect the unspliced and the spliced form of XBP1, we followed the protocol described by Martucciello et al.. After treatments for 4 h with 1 μM of each compound, or DMSO, or thapsigargin (1 μM), RNA was isolated and retro-transcripted. PCR analyses were performed with the following primers: 5′- […]-3′; 5′-[…]-3′. After 35 cycles (heating at 94 °C for 30 s, annealing at 58 °C for 45 s, and polymerisation at 72 °C for 60 s), amplified cDNA was visualised on 2.5% agarose gel, stained with an ethidium bromide solution.

SMILES: C[C@@]12C(C3=CC(=O)OC3)CC[C@]1(O)C1CCC3C[C@H]4O[C@@H]5O[C@H](CO)C[C@H](O)[C@]5(O)O[C@@H]4C[C@]3(C=O)C1C[C@H]2O (stereo partly drawn) [Compound 1, 12β,6′-dihydroxycalotropin]
- IC50 [1]: 1540 nM
- relative cytotoxicity (residual viability, MTT) [2]: intermediate cytotoxicity
- effect on BrdU incorporation / cell cycle progression [3]: slightly (but not significantly) reduced BrdU incorporation
- IC50 [4]: 2610 nM
- effect on transwell migration [5]: reduce migration
- IC50 [6]: 2210 nM
- apoptotic nuclei (TUNEL) [7]: less evident
- effect on wound closure [8]: interfered with the wound closure after 48 and 72 h

SMILES: C[C@@H]1C[C@H](O)[C@]2(O)O[C@@H]3C[C@@]4(C=O)C(CCC5C4CC[C@]4(C)C(C6=CC(=O)OC6)[C@H](O)C[C@]54O)C[C@H]3O[C@@H]2O1 (stereo partly drawn) [Compound 2, 16α-hydroxycalotropin]
- IC50 [1]: 2430 nM
- relative cytotoxicity (residual viability, MTT) [2]: intermediate cytotoxicity
- effect on BrdU incorporation / cell cycle progression [3]: significantly affected cell cycle progression
- IC50 [4]: 2340 nM
- IC50 [6]: 2320 nM
- apoptotic nuclei (TUNEL) [7]: less evident
- effect on wound closure [8]: interfered with the wound closure at 72 h only

SMILES: C[C@@H]1C[C@H](O)[C@]2(O)O[C@@H]3C[C@@]4(C=O)[C@@H](CC[C@@H]5[C@@H]4CC[C@]4(C)[C@@H](C6=CC(=O)OC6)CC[C@]54O)C[C@H]3O[C@@H]2O1 [Compound 4, calotropin]
- IC50 [1]: 767 nM
- relative cytotoxicity (residual viability, MTT) [2]: most cytotoxic
- effect on BrdU incorporation / cell cycle progression [3]: significantly affected cell cycle progression
- reduction of number of cells that incorporated BrdU compared to the vehicle [3]: about 40%
- cleaved caspase-3 (caspase-3 activation) [9]: most active
- IC50 [4]: 830 nM
- IC50 [6]: 424 nM
- apoptotic nuclei (TUNEL) [7]: occurrence of apoptotic nuclei
- effect on wound closure [8]: not affect cell migration, at any time

SMILES: C/C=C(/C)C(=O)O[C@H]1C(C)=C2[C@H]([C@@H]1OC(=O)CCCCCCC)[C@@](C)(OC(C)=O)C[C@H](OC(=O)CCC)[C@@]1(O)[C@H]2OC(=O)[C@@]1(C)O [thapsigargin]
- XBP1 splicing [10]: appearance of the spliced form
